From ChEMBL document CHEMBL1127385, “Synthesis and diuretic activity of alkyl- and arylguanidine analogs of N,N'-dicyclohexyl-4-morpholinecarboxamidine in rats and dogs” (J Med Chem, 1994)

How the values were obtained:
Rattus norvegicus [1] = assay: Total electrolytic excretion of sodium in urine of rats after peroral administration of 239 uM/Kg of drug; assay type: ADME, organism-based; details: in vivo, po
Rattus norvegicus [2] = assay: Total electrolytic excretion of potassium in urine of rats after peroral administration of 71.8 uM/Kg of drug; assay type: ADME, organism-based; details: in vivo, po
Rattus norvegicus [3] = assay: Total electrolytic excretion of chlorine in urine of rats after peroral administration of 23.9 uM/Kg of drug; assay type: ADME, organism-based; details: in vivo, po
Rattus norvegicus [4] = assay: Total electrolytic excretion of chlorine in urine of rats after peroral administration of 239 uM/Kg of drug; assay type: ADME, organism-based; details: in vivo, po
Rattus norvegicus [5] = assay: Total electrolytic excretion of potassium in urine of rats after peroral administration of 23.9 uM/Kg of drug; assay type: ADME, organism-based; details: in vivo, po
Rattus norvegicus [6] = assay: Total electrolytic excretion of potassium in urine of rats after peroral administration of 239 uM/Kg of drug; assay type: ADME, organism-based; details: in vivo, po
Rattus norvegicus [7] = assay: Total electrolytic excretion of chlorine in urine of rats after peroral administration of 71.8 uM/Kg of drug; assay type: ADME, organism-based; details: in vivo, po
Rattus norvegicus [8] = assay: Tested for the diuretic activity by measuring the urinary volume after peroral administering 71.8 uM/Kg of drug in rats; assay type: ADME, organism-based, Urine; details: in vivo, po
Rattus norvegicus [9] = assay: Total electrolytic excretion of sodium in urine of rats after peroral administration of 71.8 uM/Kg of drug; assay type: ADME, organism-based; details: in vivo, po
Rattus norvegicus [10] = assay: Tested for the diuretic activity by measuring the urinary volume after peroral administering 23.9 uM/Kg of drug in rats; assay type: ADME, organism-based, Urine; details: in vivo, po
Rattus norvegicus [11] = assay: Tested for the diuretic activity by measuring the urinary volume after peroral administering 239 uM/Kg of drug in rats; assay type: ADME, organism-based, Urine; details: in vivo, po
Rattus norvegicus [12] = assay: Total electrolytic excretion of sodium in urine of rats after peroral administration of 23.9 uM/Kg of drug; assay type: ADME, organism-based; details: in vivo, po
Rattus norvegicus [13] = assay: Ratio of Total electrolytic excretion of sodium and potassium in urine of rats after peroral administration of 23.9 uM/Kg of drug; assay type: ADME, organism-based; details: in vivo, po
Rattus norvegicus [14] = assay: Ratio of Total electrolytic excretion of sodium and potassium in urine of rats after peroral administration of 239 uM/Kg of drug; assay type: ADME, organism-based; details: in vivo, po
Rattus norvegicus [15] = assay: Ratio of Total electrolytic excretion of sodium and potassium in urine of rats after peroral administration of 71.8 uM/Kg of drug; assay type: ADME, organism-based; details: in vivo, po
Canis familiaris [16] = assay: Total electrolytic excretion of potassium in urine of dogs after intravenous administration of 2.49 uM/Kg of drug; assay type: ADME, organism-based, Canis lupus familiaris; details: dog, in vivo
Rattus norvegicus [17] = assay: Total electrolytic excretion of chlorine in urine of rats after peroral administration of 249 uM/Kg of drug; assay type: ADME, organism-based; details: in vivo, po
Rattus norvegicus [18] = assay: Total electrolytic excretion of chlorine in urine of rats after peroral administration of 74.8 uM/Kg of drug; assay type: ADME, organism-based; details: in vivo, po
Rattus norvegicus [19] = assay: Total electrolytic excretion of chlorine in urine of rats after peroral administration of 24.9 uM/Kg of drug; assay type: ADME, organism-based; details: in vivo, po
Canis familiaris [20] = assay: Total electrolytic excretion of chlorine in urine of dogs after intravenous administration of 2.49 uM/Kg of drug; assay type: ADME, organism-based, Canis lupus familiaris; details: dog, in vivo
Canis familiaris [21] = assay: Total electrolytic excretion of sodium in urine of dogs after intravenous administration of 2.49 uM/Kg of drug; assay type: ADME, organism-based, Canis lupus familiaris; details: dog, in vivo
Rattus norvegicus [22] = assay: Total electrolytic excretion of potassium in urine of rats after peroral administration of 24.9 uM/Kg of drug; assay type: ADME, organism-based; details: in vivo, po
Rattus norvegicus [23] = assay: Total electrolytic excretion of potassium in urine of rats after peroral administration of 249 uM/Kg of drug; assay type: ADME, organism-based; details: in vivo, po
Rattus norvegicus [24] = assay: Tested for the diuretic activity by measuring the urinary volume after peroral administering 74.8 uM/Kg of drug in rats; assay type: ADME, organism-based, Urine; details: in vivo, po
Rattus norvegicus [25] = assay: Total electrolytic excretion of sodium in urine of rats after peroral administration of 24.9 uM/Kg of drug; assay type: ADME, organism-based; details: in vivo, po
Rattus norvegicus [26] = assay: Total electrolytic excretion of sodium in urine of rats after peroral administration of 249 uM/Kg of drug; assay type: ADME, organism-based; details: in vivo, po
Rattus norvegicus [27] = assay: Total electrolytic excretion of sodium in urine of rats after peroral administration of 74.8 uM/Kg of drug; assay type: ADME, organism-based; details: in vivo, po
Rattus norvegicus [28] = assay: Tested for the diuretic activity by measuring the urinary volume after peroral administering 24.9 uM/Kg of drug in rats; assay type: ADME, organism-based, Urine; details: in vivo, po
Canis familiaris [29] = assay: Tested for the diuretic activity by measuring the urinary volume after intravenous administering 2.49 uM/Kg of drug in dogs; assay type: ADME, organism-based, Canis lupus familiaris, Urine; details: dog, in vivo
Rattus norvegicus [30] = assay: Tested for the diuretic activity by measuring the urinary volume after peroral administering 249 uM/Kg of drug in rats; assay type: ADME, organism-based, Urine; details: in vivo, po
Rattus norvegicus [31] = assay: Ratio of Total electrolytic excretion of sodium and potassium in urine of rats after peroral administration of 24.9 uM/Kg of drug; assay type: ADME, organism-based; details: in vivo, po
Rattus norvegicus [32] = assay: Ratio of Total electrolytic excretion of sodium and potassium in urine of rats after peroral administration of 249 uM/Kg of drug; assay type: ADME, organism-based; details: in vivo, po
Rattus norvegicus [33] = assay: Ratio of Total electrolytic excretion of sodium and potassium in urine of rats after intravenous administration of 2.49 uM/Kg of drug; assay type: ADME, organism-based; details: in vivo
Rattus norvegicus [34] = assay: Ratio of Total electrolytic excretion of sodium and potassium in urine of rats after peroral administration of 74.8 uM/Kg of drug; assay type: ADME, organism-based; details: in vivo, po
Rattus norvegicus [35] = assay: Total electrolytic excretion of potassium in urine of rats after peroral administration of 74.8 uM/Kg of drug; assay type: ADME, organism-based; details: in vivo, po
Canis familiaris [36] = assay: Total electrolytic excretion of potassium in urine of dogs after peroral administration of 3.40 uM/Kg of drug; assay type: ADME, organism-based, Canis lupus familiaris; details: dog, in vivo, po
Rattus norvegicus [37] = assay: Total electrolytic excretion of potassium in urine of rats after peroral administration of 0 uM/Kg of drug; assay type: ADME, organism-based; details: in vivo, po
Rattus norvegicus [38] = assay: Total electrolytic excretion of potassium in urine of rats after peroral administration of 1.01 uM/Kg of drug; assay type: ADME, organism-based; details: in vivo, po
Rattus norvegicus [39] = assay: Total electrolytic excretion of chlorine in urine of rats after peroral administration of 3.40 uM/Kg of drug; assay type: ADME, organism-based; details: in vivo, po
Rattus norvegicus [40] = assay: Total electrolytic excretion of chlorine in urine of rats after peroral administration of 0 uM/Kg of drug; assay type: ADME, organism-based; details: in vivo, po
Canis familiaris [41] = assay: Total electrolytic excretion of sodium in urine of dogs after peroral administration of 3.40 uM/Kg of drug; assay type: ADME, organism-based, Canis lupus familiaris; details: dog, in vivo, po
Rattus norvegicus [42] = assay: Total electrolytic excretion of sodium in urine of rats after peroral administration of 0 uM/Kg of drug; assay type: ADME, organism-based; details: in vivo, po
Rattus norvegicus [43] = assay: Total electrolytic excretion of sodium in urine of rats after peroral administration of 1.01 uM/Kg of drug; assay type: ADME, organism-based; details: in vivo, po
Rattus norvegicus [44] = assay: Total electrolytic excretion of potassium in urine of rats after peroral administration of 34.0 uM/Kg of drug; assay type: ADME, organism-based; details: in vivo, po
Canis familiaris [45] = assay: Total electrolytic excretion of chlorine in urine of dogs after peroral administration of 3.40 uM/Kg of drug; assay type: ADME, organism-based, Canis lupus familiaris; details: dog, in vivo, po
Rattus norvegicus [46] = assay: Total electrolytic excretion of potassium in urine of rats after peroral administration of 3.40 uM/Kg of drug; assay type: ADME, organism-based; details: in vivo, po
Rattus norvegicus [47] = assay: Total electrolytic excretion of chlorine in urine of rats after peroral administration of 34.0 uM/Kg of drug; assay type: ADME, organism-based; details: in vivo, po
Rattus norvegicus [48] = assay: Tested for the diuretic activity by measuring the urinary volume after peroral administering 34.0 uM/Kg of drug in rats; assay type: ADME, organism-based, Urine; details: in vivo, po
Rattus norvegicus [49] = assay: Total electrolytic excretion of sodium in urine of rats after peroral administration of 34.0 uM/Kg of drug; assay type: ADME, organism-based; details: in vivo, po
Rattus norvegicus [50] = assay: Total electrolytic excretion of sodium in urine of rats after peroral administration of 3.40 uM/Kg of drug; assay type: ADME, organism-based; details: in vivo, po
Rattus norvegicus [51] = assay: Tested for the diuretic activity by measuring the urinary volume after peroral administering 0 uM/Kg of drug in rats; assay type: ADME, organism-based, Urine; details: in vivo, po
Rattus norvegicus [52] = assay: Tested for the diuretic activity by measuring the urinary volume after peroral administering 1.01 uM/Kg of drug in rats; assay type: ADME, organism-based, Urine; details: in vivo, po
Canis familiaris [53] = assay: Tested for the diuretic activity by measuring the urinary volume after peroral administering 10.1 uM/Kg of drug in dogs; assay type: ADME, organism-based, Canis lupus familiaris, Urine; details: dog, in vivo, po
Rattus norvegicus [54] = assay: Tested for the diuretic activity by measuring the urinary volume after peroral administering 10.1 uM/Kg of drug in rats; assay type: ADME, organism-based, Urine; details: in vivo, po
Rattus norvegicus [55] = assay: Tested for the diuretic activity by measuring the urinary volume after peroral administering 3.40 uM/Kg of drug in rats; assay type: ADME, organism-based, Urine; details: in vivo, po
Canis familiaris [56] = assay: Tested for the diuretic activity by measuring the urinary volume after peroral administering 3.40 uM/Kg of drug in dogs; assay type: ADME, organism-based, Canis lupus familiaris, Urine; details: dog, in vivo, po
Canis familiaris [57] = species: Canis familiaris; details: dog, in vivo, po
Description: Total electrolytic excretion of potassium in urine of dogs after peroral administration of 10.1 uM/Kg of drug

Rattus norvegicus [58] = species: Rattus norvegicus; details: in vivo, po
Description: Total electrolytic excretion of potassium in urine of rats after peroral administration of 10.1 uM/Kg of drug

Compound: FC(F)(F)c1cccc(N/C(=N/C2CCCCC2)N2CCOCC2)c1
- Excretion Na+ (Rattus norvegicus [1]): 2.02 m equiv
- Excretion K+ (Rattus norvegicus [2]): 0.32 m equiv
- Excretion Cl- (Rattus norvegicus [3]): 1.17 m equiv
- Excretion Cl- (Rattus norvegicus [4]): 2.03 m equiv
- Excretion K+ (Rattus norvegicus [5]): 0.39 m equiv
- Excretion K+ (Rattus norvegicus [6]): 0.45 m equiv
- Excretion Cl- (Rattus norvegicus [7]): 1.59 m equiv
- V (Rattus norvegicus [8]): 9.5 mL
- Excretion Na+ (Rattus norvegicus [9]): 1.46 m equiv
- V (Rattus norvegicus [10]): 6.6 mL
- V (Rattus norvegicus [11]): 14 mL
- Excretion Na+ (Rattus norvegicus [12]): 1.02 m equiv
- Ratio (Rattus norvegicus [13]): 2.6
- Ratio (Rattus norvegicus [14]): 4.5
- Ratio (Rattus norvegicus [15]): 4.6

Compound: CCOC(=O)N1CCN(/C(=N\C2CCCCC2)NC2CCCCC2)CC1
- Excretion K+ (Canis familiaris [16]): 2 m equiv
- Excretion Cl- (Rattus norvegicus [17]): 1.7 m equiv
- Excretion Cl- (Rattus norvegicus [18]): 1.38 m equiv
- Excretion Cl- (Rattus norvegicus [19]): 0.98 m equiv
- Excretion Cl- (Canis familiaris [20]): 5.4 m equiv
- Excretion Na+ (Canis familiaris [21]): 8.3 m equiv
- Excretion K+ (Rattus norvegicus [22]): 0.29 m equiv
- Excretion K+ (Rattus norvegicus [23]): 0.42 m equiv
- V (Rattus norvegicus [24]): 8.3 mL
- Excretion Na+ (Rattus norvegicus [25]): 0.87 m equiv
- Excretion Na+ (Rattus norvegicus [26]): 1.67 m equiv
- Excretion Na+ (Rattus norvegicus [27]): 1.35 m equiv
- V (Rattus norvegicus [28]): 5.3 mL
- V (Canis familiaris [29]): 51 mL
- V (Rattus norvegicus [30]): 10.8 mL
- Ratio (Rattus norvegicus [31]): 3
- Ratio (Rattus norvegicus [32]): 4
- Ratio (Rattus norvegicus [33]): 4.8
- Ratio (Rattus norvegicus [34]): 4.1
- Excretion K+ (Rattus norvegicus [35]): 0.33 m equiv

Compound: NS(=O)(=O)c1cc2c(cc1Cl)NCNS2(=O)=O [HYDROCHLOROTHIAZIDE]
- Excretion K+ (Canis familiaris [36]): 3.3 m equiv
- Excretion K+ (Rattus norvegicus [37]): 0.27 m equiv
- Excretion K+ (Rattus norvegicus [38]): 0.32 m equiv
- Excretion Cl- (Rattus norvegicus [39]): 1.91 m equiv
- Excretion Cl- (Rattus norvegicus [40]): 0.8 m equiv
- Excretion Na+ (Canis familiaris [41]): 16.1 m equiv
- Excretion Na+ (Rattus norvegicus [42]): 0.82 m equiv
- Excretion Na+ (Rattus norvegicus [43]): 1.36 m equiv
- Excretion K+ (Rattus norvegicus [44]): 0.4 m equiv
- Excretion Cl- (Canis familiaris [45]): 17.3 m equiv
- Excretion K+ (Rattus norvegicus [46]): 0.39 m equiv
- Excretion Cl- (Rattus norvegicus [47]): 2.17 m equiv
- V (Rattus norvegicus [48]): 11.3 mL
- Excretion Na+ (Rattus norvegicus [49]): 2.03 m equiv
- Excretion Na+ (Rattus norvegicus [50]): 1.79 m equiv
- V (Rattus norvegicus [51]): 4.4 mL
- V (Rattus norvegicus [52]): 6.8 mL
- V (Canis familiaris [53]): 85 mL
- V (Rattus norvegicus [54]): 10.2 mL
- V (Rattus norvegicus [55]): 10 mL
- V (Canis familiaris [56]): 76 mL
- Excretion K+ (Canis familiaris [57]): 3.4 m equiv
- Excretion K+ (Rattus norvegicus [58]): 0.37 m equiv
